Results reported in US20240174622A1, “COMPOUND AND RADIOACTIVE LABELING COMPOUND” (NIHON MEDI-PHYSICS CO., LTD., priority 2021, published 2024).
Several values for one entry are separate records, joined by “and”; a condition that tells them apart may be missing. Identical values can stand only once.

How the values were obtained:
[1] = system: LNCaP tumor; assay: SPECT/CT using LNCaP tumor-transplanted mouse; type: in vivo; conditions: 24 (and 48) hours after administration
Procedure: (§1) LNCaP tumor-implanted mice prepared by the method described above were administered saline solutions (1.9 to 3.0 MBq, 150 μL) of [^111In]In-PSMA-DA1 or [^111In]In-PSMA-DB from the tail vein. SPECT/CT was performed 24 and 48 hours after administration with FX3300 pre-clinical imaging system, which is manufactured by Gamma Medica-Ideas. Imaging was performed using a pinhole collimator with a diameter of 1.0 mm at a rotation radius of 35 mm, a projection time of 70 seconds, and the number of projections of 32 times under isoflurane anesthesia. After SPECT, CT (Tube voltage: 60 kV, Tube current: 350 μA) was performed. Image reconstruction was performed on the projection data of SPECT through three-dimensional ordered subset expectation maximization method (8 subsets, 5 iterations).
In the figure, the part indicated by the arrow is the location of the tumor, and the part indicated by the circle is the location of the kidney. The higher the SUV, the higher the radioactivity accumulation. […]
as §1, with “SPECT/CT” for “LNCaP tumor-implanted mice prepared by the method described above were administered saline solutions (1.9 to 3.0 MBq, 150 μL) of [^111In]In-PSMA-DA1 or [^111In]In-PSMA-DB from the tail vein. SPECT/CT”, “24, 48,” for “24”, “96” for “48”

[2] = system: LNCaP tumor-transplanted mouse; assay: Internal radioactivity distribution using LNCaP tumor-transplanted mouse; type: in vivo
Summary of the method: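 Male SCID mice bearing subcutaneous LNCaP or PC-3 xenografts (40–60 days) received the 111In-labelled compound i.v. via tail vein (185–259 kBq in saline; n=2–3). Blood and organs collected at 1 to 192 hours post-dose, weighed and counted. Uptake expressed as %ID/g.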

O=C([O-])CN1CCN(C(CCC(=O)NCCCC[C@H](NC(=O)N[C@@H](CCC(=O)O)C(=O)O)C(=O)O)C(=O)[O-])CCN(CC(=O)[O-])CCN(C(CCC(=O)N[C@@H](CCCCNC(=O)CCCc2ccc(I)cc2)C(=O)O)C(=O)[O-])CC1.[111In+3] (some centres unmarked) [[^111In]In-PSMA-DA1]
radioactivity accumulation at the LNCaP tumor in SPECT/CT [1]: significant radioactivity accumulation
radioactivity accumulation at the kidney in SPECT/CT [1]: High radioactivity accumulation
Blood ([2]; 1 h after administration): 31.1 ± 3.99 % ID/g
Brain ([2]; 1 h after administration): 0.56 ± 0.06 % ID/g
Heart ([2]; 1 h after administration): 7.93 ± 2.10 % ID/g
Intestine ([2]; 1 h after administration): 2.63 ± 0.42 % ID/g
Kidney ([2]; 1 h after administration): 34.3 ± 7.79 % ID/g
LNCaP Tumor ([2]; 1 h after administration): 9.41 ± 2.30 % ID/g
Liver ([2]; 1 h after administration): 4.95 ± 0.27 % ID/g
Lung ([2]; 1 h after administration): 16.2 ± 3.86 % ID/g
Muscle ([2]; 1 h after administration): 2.02 ± 0.17 % ID/g
Pancreas ([2]; 1 h after administration): 3.34 ± 0.40 % ID/g
Spleen ([2]; 1 h after administration): 8.56 ± 2.90 % ID/g
Stomach (% ID) ([2]; 1 h after administration): 0.52 ± 0.02 % ID
Blood ([2]; 4 h after administration): 26.9 ± 9.56 % ID/g
Brain ([2]; 4 h after administration): 0.52 ± 0.15 % ID/g
Heart ([2]; 4 h after administration): 7.10 ± 1.82 % ID/g
Intestine ([2]; 4 h after administration): 3.17 ± 0.73 % ID/g
Kidney ([2]; 4 h after administration): 63.5 ± 13.9 % ID/g
LNCaP Tumor ([2]; 4 h after administration): 12.1 ± 4.04 % ID/g
Liver ([2]; 4 h after administration): 4.20 ± 1.51 % ID/g
Lung ([2]; 4 h after administration): 17.9 ± 6.62 % ID/g
Muscle ([2]; 4 h after administration): 2.15 ± 1.09 % ID/g
Pancreas ([2]; 4 h after administration): 2.48 ± 1.03 % ID/g
Spleen ([2]; 4 h after administration): 9.52 ± 4.28 % ID/g
Stomach (% ID) ([2]; 4 h after administration): 0.51 ± 0.05 % ID
Blood ([2]; 24 h after administration): 14.0 ± 3.27 % ID/g
Brain ([2]; 24 h after administration): 0.36 ± 0.11 % ID/g
Heart ([2]; 24 h after administration): 4.26 ± 0.89 % ID/g
Intestine ([2]; 24 h after administration): 1.53 ± 0.44 % ID/g
Kidney ([2]; 24 h after administration): 27.1 ± 9.25 % ID/g
LNCaP Tumor ([2]; 24 h after administration): 12.6 ± 2.15 % ID/g
Liver ([2]; 24 h after administration): 2.64 ± 0.38 % ID/g
Lung ([2]; 24 h after administration): 10.5 ± 2.58 % ID/g
Muscle ([2]; 24 h after administration): 1.38 ± 0.39 % ID/g
Pancreas ([2]; 24 h after administration): 2.12 ± 0.49 % ID/g
Spleen ([2]; 24 h after administration): 6.01 ± 2.33 % ID/g
Stomach (% ID) ([2]; 24 h after administration): 0.40 ± 0.09 % ID
retention in blood ([2]; 24 hours after administration): 14.000 % ID/g
Blood ([2]; 48 h after administration): 4.18 ± 0.56 % ID/g
Brain ([2]; 48 h after administration): 0.16 ± 0.01 % ID/g
Heart ([2]; 48 h after administration): 1.66 ± 0.23 % ID/g
Intestine ([2]; 48 h after administration): 0.96 ± 0.25 % ID/g
Kidney ([2]; 48 h after administration): 9.04 ± 2.70 % ID/g
LNCaP Tumor ([2]; 48 h after administration): 8.82 ± 1.26 % ID/g
Liver ([2]; 48 h after administration): 1.59 ± 0.14 % ID/g
Lung ([2]; 48 h after administration): 4.17 ± 0.26 % ID/g
Muscle ([2]; 48 h after administration): 0.54 ± 0.10 % ID/g
Pancreas ([2]; 48 h after administration): 1.06 ± 0.12 % ID/g
Spleen ([2]; 48 h after administration): 4.28 ± 0.79 % ID/g
Stomach (% ID) ([2]; 48 h after administration): 0.25 ± 0.05 % ID
tumor/kidney ratio ([2]; 48 hours after administration): exceeded 1
Blood ([2]; 96 h after administration): 0.76 ± 0.58 % ID/g
Brain ([2]; 96 h after administration): 0.07 ± 0.03 % ID/g
Heart ([2]; 96 h after administration): 0.75 ± 0.33 % ID/g
Intestine ([2]; 96 h after administration): 0.75 ± 0.44 % ID/g
Kidney ([2]; 96 h after administration): 3.51 ± 2.54 % ID/g
LNCaP Tumor ([2]; 96 h after administration): 5.98 ± 1.87 % ID/g
Liver ([2]; 96 h after administration): 1.10 ± 0.27 % ID/g
Lung ([2]; 96 h after administration): 1.55 ± 0.86 % ID/g
Muscle ([2]; 96 h after administration): 0.23 ± 0.09 % ID/g
Pancreas ([2]; 96 h after administration): 0.64 ± 0.24 % ID/g
Spleen ([2]; 96 h after administration): 2.42 ± 1.54 % ID/g
Stomach (% ID) ([2]; 96 h after administration): 0.08 ± 0.03 % ID
Blood ([2]; 192 h after administration): 0.16 ± 0.03 % ID/g
Brain ([2]; 192 h after administration): 0.05 ± 0.01 % ID/g
Heart ([2]; 192 h after administration): 0.41 ± 0.08 % ID/g
Intestine ([2]; 192 h after administration): 0.12 ± 0.03 % ID/g
Kidney ([2]; 192 h after administration): 1.33 ± 0.42 % ID/g
LNCaP Tumor ([2]; 192 h after administration): 4.69 ± 1.32 % ID/g
Liver ([2]; 192 h after administration): 0.69 ± 0.12 % ID/g
Lung ([2]; 192 h after administration): 0.75 ± 0.22 % ID/g
Muscle ([2]; 192 h after administration): 0.15 ± 0.05 % ID/g
Pancreas ([2]; 192 h after administration): 0.46 ± 0.08 % ID/g
Spleen ([2]; 192 h after administration): 2.69 ± 0.83 % ID/g
Stomach (% ID) ([2]; 192 h after administration): 0.05 ± 0.01 % ID

O=C([O-])CN1CCN(C(CCC(=O)NCCC(=O)N2Cc3ccccc3-c3c(nnn3CCOCCOCCOCCOCCC(=O)NCCCC[C@H](NC(=O)N[C@@H](CCC(=O)O)C(=O)O)C(=O)O)-c3ccccc32)C(=O)[O-])CCN(CC(=O)[O-])CCN(C(CCC(=O)N[C@@H](CCCCNC(=O)CCCc2ccc(I)cc2)C(=O)O)C(=O)[O-])CC1.[111In+3] (some centres unmarked) [[^111In]In-PtDA]
radioactivity accumulation at the LNCaP tumor in SPECT/CT [1]: high radioactivity accumulation
Blood ([2]; 1 h after administration): 19.8 ± 2.74 % ID/g
Brain ([2]; 1 h after administration): 0.36 ± 0.05 % ID/g
Heart ([2]; 1 h after administration): 5.49 ± 0.77 % ID/g
Intestine ([2]; 1 h after administration): 2.66 ± 0.28 % ID/g
Kidney ([2]; 1 h after administration): 37.2 % ID/g and 37.2 ± 6.85 % ID/g
LNCaP Tumor ([2]; 1 h after administration): 2.18 ± 0.17 % ID/g
Liver ([2]; 1 h after administration): 3.51 ± 0.38 % ID/g
Lung ([2]; 1 h after administration): 11.9 ± 1.57 % ID/g
Muscle ([2]; 1 h after administration): 1.95 ± 0.30 % ID/g
Pancreas ([2]; 1 h after administration): 2.31 ± 0.14 % ID/g
Spleen ([2]; 1 h after administration): 15.3 ± 4.89 % ID/g
Stomach (% ID) ([2]; 1 h after administration): 0.79 ± 0.19 % ID
Blood ([2]; 24 h after administration): 12.5 ± 1.47 % ID/g
Brain ([2]; 24 h after administration): 0.30 ± 0.05 % ID/g
Heart ([2]; 24 h after administration): 3.95 ± 0.87 % ID/g
Intestine ([2]; 24 h after administration): 1.52 ± 0.41 % ID/g
Kidney ([2]; 24 h after administration): 68.0 ± 2.82 % ID/g
LNCaP Tumor ([2]; 24 h after administration): 16.0 % ID/g and 16.0 ± 9.49 % ID/g
Liver ([2]; 24 h after administration): 3.36 ± 0.77 % ID/g
Lung ([2]; 24 h after administration): 8.63 ± 1.31 % ID/g
Muscle ([2]; 24 h after administration): 1.28 ± 0.34 % ID/g
Pancreas ([2]; 24 h after administration): 2.03 ± 0.48 % ID/g
Spleen ([2]; 24 h after administration): 9.69 ± 0.92 % ID/g
Stomach (% ID) ([2]; 24 h after administration): 0.46 ± 0.23 % ID
Blood ([2]; 48 h after administration): 6.33 ± 1.53 % ID/g
Brain ([2]; 48 h after administration): 0.20 ± 0.07 % ID/g
Heart ([2]; 48 h after administration): 1.98 ± 0.41 % ID/g
Intestine ([2]; 48 h after administration): 0.74 ± 0.28 % ID/g
Kidney ([2]; 48 h after administration): 55.9 ± 6.39 % ID/g
LNCaP Tumor ([2]; 48 h after administration): 18.7 % ID/g and 18.7 ± 5.21 % ID/g
Liver ([2]; 48 h after administration): 2.28 ± 0.75 % ID/g
Lung ([2]; 48 h after administration): 6.16 ± 1.56 % ID/g
Muscle ([2]; 48 h after administration): 0.81 ± 0.40 % ID/g
Pancreas ([2]; 48 h after administration): 1.12 ± 0.39 % ID/g
Spleen ([2]; 48 h after administration): 10.5 ± 5.62 % ID/g
Stomach (% ID) ([2]; 48 h after administration): 0.29 ± 0.20 % ID
